Measured values reported in US12213483B1, “Herbicidal compositions comprising trifludimoxazin” (BASF SE, priority 2024, dated 2025).

What was measured:
Format in all cases: in vivo
[1] = system: Brachiaria decumbens (BRADC); test: Post-emergence application in field trials, BRADC; conditions: 3 DAT, water volume 200 l/ha, growth stage 21-31, height 3-20 cm
Description: (§1) In the examples below, using the method of S. R. Colby (1967) “Calculating synergistic and antagonistic responses of herbicide combinations”, Weeds 15, p. 22ff., the value E, which is expected if the activity of the individual active compounds is only additive, was calculated: E=X+Y−(X·Y/100) • where • X=percent activity using active herbicide A at an application rate a; • Y=percent activity using active trifludimoxazin at an application rate b; • E=expected activity (in %) by A+B at application rates a+b.
(§2) If the value found experimentally is higher than the value E calculated according to Colby, a synergistic effect is present.
(§3) On field test sites, natural weed infestation or seeded weeds were treated post-emergence of the weeds.
(§4) In the field trials, the weedy plants were treated as indicated below.
(§5) Herbicide A-1 (342 g/I), trifludimoxazin (500 g/I) and saflufenacil (342 g/I) were, together with addition of 1% MSO (methylated seed oil) as adjuvant (unless indicated otherwise), formulated in water as distribution medium as indicated and sprayed with commercial flat fan nozzles.
(§6) In the following experiments, the herbicidal activity for the individual herbicidal compositions (solo and mixture applications) was assessed at the indicated days after treatment (DAT). […]

Setaria italica (SETIT) = test: Post-emergence application in field trials, SETIT; conditions: 22 DAT, water volume 200 l/ha, growth stage 21-31
Description: as §1, §2, §3, §4, §5, §6

Kochia scoparia (KCHSC) [2] = test: Post-emergence application in greenhouse trials, KCHSC
Description: as §1, §2
(§7) The culture containers used were plastic pots containing loamy sand with approximately 3.0% of humus as substrate. The seeds of the test plants were sown separately for each species.
(§8) For the post-emergence treatment, the test plants were grown to a plant height of from 3 to 15 cm, depending on the plant habit, and only then treated with the active compounds which had been suspended or emulsified in water. To this end, the test plants were either sown directly, and grown in the same containers, or they were first grown separately as seedlings and transplanted into the test containers a few days prior to treatment.
(§9) Depending on the species, the plants were kept at 10-25° C. and 20-35° C., respectively.
(§10) The test period extended over 2 to 4 weeks. During this time, the plants were tended and their response to the individual treatments was evaluated.
(§11) Evaluation was carried out using a scale from 0 to 100. 100 means no emergence of the plants, or complete destruction of at least the above-ground parts, and 0 means no damage or normal course of growth. A good herbicidal activity is given at values of at least 70, and very good herbicidal activity is given at values of at least 85.
(§12) In the greenhouse trials, unless indicated otherwise, herbicide A, trifludimoxazin and saflufenacil were formulated (50 g/I) and applied with addition of 1% MSO (methylated seed oil) as adjuvant. The solvent used was water (200 I/ha).

Cyperus iria (CYPIR) = test: Post-emergence application in field trials, CYPIR; conditions: 3 DAT, height 3-5 cm
Description: as §1, §2, §3, §4, §5
(§13) In the following experiments, the herbicidal activity for the individual herbicidal compositions (solo and mixture applications) was assessed at the indicated days after treatment (DAT). The assessments for the damage on undesired weeds caused by the composition was carried out using a scale from 0 to 100%, compared to the untreated control plants. Here, 0 means no damage and 100 means complete destruction of the plants.
(§14) Herbicide A-1 (100 g/l) and trifludimoxazin (500 g/l) were, together with addition of 1% MSO (methylated seed oil) as adjuvant (unless indicated otherwise), formulated in water as distribution medium as indicated and sprayed with commercial flat fan nozzles.

[3] = system: Erigeron canadensis (ERICA); test: Post-emergence application in greenhouse trials, ERICA; conditions: 20 DAT, GS 19
Description: as §1, §2, §7
as §8, with “treatment. […]” for “treatment.”
The test period extended over 2 to 4 weeks. During this time, the plants were tended and their response to the individual treatments was evaluated. […]

[4] = system: Amaranthus palmeri (AMAPA); test: Post-emergence application in field trials, AMAPA; conditions: 21 DAT, water volume 200 l/ha, 0.25 l/ha Dash MSO Max, pre plant burndown, height 30 cm
Description: as §1, §2, §3, §4, §5, §13, §14

Sorghum bicolor (SORVU) = test: Post-emergence application in field trials, SORVU; conditions: 22 DAT, water volume 200 l/ha, growth stage 21-31, volunteer crop, non PPO-i herbicide tolerant
Description: as §1, §2, §3, §4, §5, §6

[5] = system: Erigeron canadensis (ERICA); test: Post-emergence application in field trials, ERICA; conditions: 22 DAT; water volume 200 l/ha; growth stage 15-20; 25 g ai/ha
Description: as §1, §2, §3, §4, §5, §6

Kochia scoparia (KCHSC) [6] = test: Post-emergence application in field trials, KCHSC; conditions: 28 DAT; water volume 100 l/ha; pre plant burndown; growth stage 11-16; height 1-9 cm; 18 g ai/ha
Description: as §1, §2, §3, §4, §5, §6

Avena fatua (AVEFA) [7] = test: Post-emergence application in greenhouse trials, AVEFA
Description: as §1, §2, §7, §8, §9, §10, §11, §12

[8] = system: Abutilon theophrasti (ABUTH); test: Post-emergence application in greenhouse trials, ABUTH
Description: as §1, §2, §7, §8, §9, §10, §11, §12

[9] = system: Senna obtusifolia (CASOB); test: Post-emergence application in field trials, CASOB; conditions: 43 DAT, water volume 200 l/ha, growth stage 12-35, height 5-20 cm
Description: as §1, §2, §3, §4, §5, §13, §14

Hordeum vulgare (HORVS) = test: Post-emergence application in field trials, HORVS; conditions: water volume 100 l/ha, pre plant burndown, 18 g ai/ha
Description: as §1, §2, §3, §4, §5, §13, §14

Sinapis alba (SINAL) = test: Post-emergence application in field trials, SINAL; conditions: 7 DAT; water volume 200 l/ha; growth stage 14-21; height 11-12 cm; 12.5 g ai/ha
Description: as §1, §2, §3, §4, §5, §6

Avena fatua (AVEFA) [10] = test: Post-emergence application in field trials, AVEFA; conditions: 29 DAT; water volume 100 l/ha; pre plant burndown; growth stage 14-23; height 24-40 cm; 18 g ai/ha
Description: as §1, §2, §3, §4, §5, §13, §14

[11] = 20 DAT, growth stage 33, 0.3 g ai/ha
[12] = 20 DAT, growth stage 33, 0.5 g ai/ha
[13] = water volume 200 l/ha, growth stage 13-14, 25 g ai/ha
[14] = 20 DAT, growth stage 33, 0.2 g ai/ha
[15] = 28 DAT, growth stage 21-24, height 15-37 cm
[16] = 29 DAT, growth stage 15-24, height 25-45 cm

In the case of `CCOC(=O)COc1ccccc1Oc1nc(-n2c(=O)cc(C(F)(F)F)n(C)c2=O)c(F)cc1Cl` [A-1, ethyl 2-[2-[[3-chloro-5-fluoro-6-[3-methyl-2,6-dioxo-4-(trifluoromethyl)pyrimidin-1-yl]-2-pyridyl]oxy]phenoxy]acetate], the “% Herbicidal activity” value ([1]; 20 g ai/ha) is reported as 77%, the “% Herbicidal activity” value (Setaria italica (SETIT); 30 g ai/ha) is reported as 88% and the “% Herbicidal activity” value (Kochia scoparia (KCHSC) [2]; 6 DAT, GS 33, A-1 0.4 g ai/ha) is reported as 55%. For the same compound, the “% Herbicidal activity” value (Kochia scoparia (KCHSC) [2]; 6 DAT, GS 33, A-1 0.5 g ai/ha) was 65%, the “% Herbicidal activity” value (Kochia scoparia (KCHSC) [2]; 6 DAT, GS 33, A-1 0.9 g ai/ha) was 90% and the “% Herbicidal activity” value (Kochia scoparia (KCHSC) [2]; 20 DAT, GS 33, A-1 0.2 g ai/ha) was 15%. For the same compound, the “% Herbicidal activity” value (Kochia scoparia (KCHSC) [2]; 20 DAT, GS 33, A-1 0.3 g ai/ha) was 55%, the “% Herbicidal activity” value (Kochia scoparia (KCHSC) [2]; 20 DAT, GS 33, A-1 0.5 g ai/ha) was 55% and the “% Herbicidal activity” value (Kochia scoparia (KCHSC) [2]; 20 DAT, GS 33, A-1 0.9 g ai/ha) was 90%. For the same compound, the “% Herbicidal activity” value (Kochia scoparia (KCHSC) [2]; [11]) was 55%, the “% Herbicidal activity” value (Kochia scoparia (KCHSC) [2]; [12]) was 55% and the “% Herbicidal activity” value (Cyperus iria (CYPIR); [13]) was 23%. For the same compound, the “% Herbicidal activity” value (Cyperus iria (CYPIR); water volume 300 l/ha, burndown in fruit plantation (citrus), GS 13-14, A-1 25 g ai/ha) was 23%, the “% Herbicidal activity” value ([3]; A-1 0.2 g ai/ha) was 10% and the “% Herbicidal activity” value ([4]; A-1 12.5 g ai/ha) was 70%. For the same compound, the “% Herbicidal activity” value ([4]; A-1 25 g ai/ha) was 85%, the “% Herbicidal activity” value (Sorghum bicolor (SORVU); 20 g ai/ha) was 93% and the “% Herbicidal activity” value [5] was 70%. The “% Herbicidal activity” value (Kochia scoparia (KCHSC) [6]) was 57%, the “% Herbicidal activity” value (Avena fatua (AVEFA) [7]; 7 DAT, GS 13, A-1 1 g ai/ha) was 65% and the “% Herbicidal activity” value (Avena fatua (AVEFA) [7]; 20 DAT, B-1 formulated as 500 g/l, GS 12, A-1 2 g ai/ha) was 98%. For the same compound, the “% Herbicidal activity” value (Avena fatua (AVEFA) [7]; 20 DAT, GS 13, A-1 0.3 g ai/ha) was 15%, the “% Herbicidal activity” value (Avena fatua (AVEFA) [7]; 20 DAT, growth stage 13, 0.3 g ai/ha) was 15% and the “% Herbicidal activity” value ([8]; 6 DAT, GS 33, A-1 0.2 g ai/ha) was 65%. The “% Herbicidal activity” value ([8]; 6 DAT, GS 33, A-1 0.3 g ai/ha) was 65%, the “% Herbicidal activity” value ([8]; 6 DAT, GS 33, A-1 0.8 g ai/ha) was 85% and the “% Herbicidal activity” value ([8]; 20 DAT, GS 33, A-1 0.2 g ai/ha) was 15%. For the same compound, the “% Herbicidal activity” value ([8]; 20 DAT, GS 33, A-1 0.3 g ai/ha) was 15%, the “% Herbicidal activity” value [8, 14] was 15% and the “% Herbicidal activity” value ([9]; 20 g ai/ha) was 58%. For the same compound, the “% Herbicidal activity” value ([9]; 30 g ai/ha) was 73%, the “% Herbicidal activity” value (Hordeum vulgare (HORVS); [15]) was 89% and the “% Herbicidal activity” value (Hordeum vulgare (HORVS); [16]) was 73%. The “% Herbicidal activity” value (Sinapis alba (SINAL)) was 55% and the “% Herbicidal activity” value (Avena fatua (AVEFA) [10]) was 80%.

For `C#CCN1C(=O)C(F)(F)Oc2cc(F)c(-n3c(=O)n(C)c(=S)n(C)c3=O)cc21` [B-1, trifludimoxazin], the “% Herbicidal activity” value ([1]; 12.5 g ai/ha) was 43%, the “% Herbicidal activity” value (Setaria italica (SETIT); 12.5 g ai/ha) was 27% and the “% Herbicidal activity” value (Kochia scoparia (KCHSC) [2]; 6 DAT, GS 33, B-1 0.3 g ai/ha) was 45%. The “% Herbicidal activity” value (Kochia scoparia (KCHSC) [2]; 6 DAT, GS 33, B-1 0.5 g ai/ha) was 80%, the “% Herbicidal activity” value (Kochia scoparia (KCHSC) [2]; 6 DAT, GS 33, B-1 0.8 g ai/ha) was 85% and the “% Herbicidal activity” value (Kochia scoparia (KCHSC) [2]; 20 DAT, GS 33, B-1 0.3 g ai/ha) was 35%. The “% Herbicidal activity” value (Kochia scoparia (KCHSC) [2]; 20 DAT, GS 33, B-1 0.9 g ai/ha) was 80%, the “% Herbicidal activity” value (Kochia scoparia (KCHSC) [2]; 20 DAT, GS 33, B-1 1 g ai/ha) was 98% and the “% Herbicidal activity” value (Kochia scoparia (KCHSC) [2]; [11]) was 35%. For the same compound, the “% Herbicidal activity” value (Kochia scoparia (KCHSC) [2]; [12]) was 75%, the “% Herbicidal activity” value (Cyperus iria (CYPIR); [13]) was 63% and the “% Herbicidal activity” value (Cyperus iria (CYPIR); water volume 300 l/ha, burndown in fruit plantation (citrus), GS 13-14, B-1 25 g ai/ha) was 65%. For the same compound, the “% Herbicidal activity” value ([3]; B-1 1.1 g ai/ha) was 40%, the “% Herbicidal activity” value ([4]; B-1 12.5 g ai/ha) was 20% and the “% Herbicidal activity” value (Sorghum bicolor (SORVU); 12.5 g ai/ha) was 20%. For the same compound, the “% Herbicidal activity” value [5] was 27%, the “% Herbicidal activity” value (Kochia scoparia (KCHSC) [6]) was 68% and the “% Herbicidal activity” value (Avena fatua (AVEFA) [7]; 7 DAT, GS 13, B-1 0.2 g ai/ha) was 20%. The “% Herbicidal activity” value (Avena fatua (AVEFA) [7]; 20 DAT, B-1 formulated as 500 g/l, GS 12, B-1 1 g ai/ha) was 15%, the “% Herbicidal activity” value (Avena fatua (AVEFA) [7]; 20 DAT, growth stage 13, 0.9 g ai/ha) was 20% and the “% Herbicidal activity” value ([8]; 6 DAT, GS 33, B-1 0.2 g ai/ha) was 20%. The “% Herbicidal activity” value ([8]; 6 DAT, GS 33, B-1 0.3 g ai/ha) was 20%, the “% Herbicidal activity” value ([8]; 6 DAT, GS 33, B-1 0.4 g ai/ha) was 35% and the “% Herbicidal activity” value ([8]; 20 DAT, GS 33, B-1 0.3 g ai/ha) was 0%. The “% Herbicidal activity” value [8, 14] was 0%, the “% Herbicidal activity” value ([9]; 12.5 g ai/ha) was 48% and the “% Herbicidal activity” value (Hordeum vulgare (HORVS); [15]) was 0%. The “% Herbicidal activity” value (Hordeum vulgare (HORVS); [16]) was 0%, the “% Herbicidal activity” value (Sinapis alba (SINAL)) was 82% and the “% Herbicidal activity” value (Avena fatua (AVEFA) [10]) was 0%.
